The record followed here is patent US9610299B2, “Compounds for the treatment of addiction” (Gilead Sciences, Inc., priority 2011, dated 2017).

Common to all, as to format: in vivo
The subject of test [1] is Male SD rats. The experiment in a line: Rat nicotine self administration, acute treatment. The following applies: for inhibition of number of nicotine infusions: vs vehicle. On the procedure: Male SD rats were trained to self administer i.v. nicotine (0.03 mg/kg/inj) daily (Monday to Friday) in standard operant chambers with retractable levers (MED Associates, Inc) as previously published (Levin et al., 2003; Levin et al., 2007). During the daily 45 min session, rats received 0.05 ml infusion of 0.03 mg/kg/infusion of nicotine every time the active lever was pressed. A cue light and tone turned on for 0.5 sec together with the activation of a pump that delivered the nicotine solution. Daily sessions were run for at least 10 days before the initiation of drug testing. Solutions of compounds of Example 2 and Example 5 were prepared fresh daily in Formulation 2B: 25% PEG400/5% Vit E TPGS/1% SLS/69% water with 0.5% Methocel) for oral dosing. Compound of Example 2 doses were administered in a counterbalanced design for testing 1 hr before each nicotine session. Every rat received all drug doses and vehicle in a randomly assigned order. The oral drug administrations were made twice per week.
Compound of Example 5 was tested in a study using 4 independent groups. Each group received either oral vehicle or 1 of the 3 doses of compound of Example 5 (5, 10 or 30 mg-eq/kg). […] The 5 mg/kg dose was ineffective.

Test [2] concerns male Sprague Dawley (SD) rats. The experiment in a line: Rat cocaine cue reinstatement. The following applies: for inhibition of cocaine cue-induced reinstatement (lever presses): 1 hr before session, vs vehicle. On the procedure: Training of male Sprague Dawley (SD) rats had 3 separate stages. First, during self administration, animals were trained to lever press for cocaine with presentation of concomitant cues associated with drug delivery. Rats that reached criteria for addiction were included in the study. Afterward, during cue extinction, cocaine-cue dependent behavior was extinguished. Lastly, during cocaine cue reinstatement, the effect of compounds was tested on lever presses upon cue presentation (FIG. 2).
Rats were trained to self administer i.v. cocaine (0.35 mg/kg/injection) daily (Monday to Friday) in standard operant chambers with retractable levers (Coulbourn Instruments, PA). During the daily 2 hr session, rats received a 0.05 ml infusion of 0.35 mg/kg cocaine every time the active lever was pressed. A cue light and tone turned on for 2 sec together with activation of a pump that delivered the cocaine solution. Rats were required to maintain an infusion rate of ≧20+ per day for at least 10 days before being moved to extinction training.
During extinction sessions lever presses no longer produced cocaine infusion and cue light/tone presentation was absent. Rats received a maximum of 15 extinction sessions.
On the next day after reaching extinction criteria, rats were treated orally with vehicle (Formulation 2B: 25% PEG400/5% Vit E TPGS/1% SLS/69% water with 0.5% Methocel) or drug (compound of Example 2 or compound of Example 5) before the cue reinstatement session. Cue reinstatement began with a tone and cue light. This 2 hr session was identical to the self-administration session (cue light and tone present upon active lever press) except that no cocaine was delivered. The number of active lever presses was compared to extinction lever responding. This is considered a measure of reinstatement. The next day, rats were returned to extinction sessions for at least 2 or 3 more sessions. Rats then received a second and last reinstatement session with an opposite treatment to the one received on the first reinstatement session (vehicle or drug treatment). […] The light/tone presentation triggers this response and it is interpreted as a measure of reinstatement even though cocaine is not available.

In test [3] the test system is Male SD rats. The experiment in a line: Rat nicotine self administration, chronic treatment. The following applies: for inhibition of number of nicotine infusions: vs vehicle. On the procedure: Upon completion of the acute compound of Example 5 treatment study, the same animals were used to test the effect of 7-day chronic oral administration of compound of Example 5 in the nicotine self administration model. Rats were treated orally with compound of Example 5 (5, 10 or 30 mg-eq/kg) or vehicle 1 hr before nicotine self administration session for 7 consecutive days. […] Similar to the acute treatment, the 5 mg-eq/kg dose was ineffective (FIG. 7). […] Animals in nicotine self administration studies had to reach pre defined criteria (e.g. rat strain, minimum number of nicotine infusions, consistent baseline nicotine self administration throughout the study, patent iv catheters, etc.) to be included in analysis.

Regarding `O=C(NCc1ccc(-c2ccn(COP(=O)(O)O)c(=O)c2)cc1)c1c(Cl)cccc1Cl` [Compound 14, phosphoric acid mono-(4-{4-[(2,6-dichloro-benzoylamino)-methyl]-phenyl}-2-oxo-2H-pyridin-1-ylmethyl) ester], the “effect on number of nicotine infusions, in words” value in test [1] (5 mg-eq/kg oral, independent groups) is on record as “ineffective”; in test [3] (7-day chronic oral, 5 mg-eq/kg) it was “ineffective”. Also, the “inhibition of number of nicotine infusions” value worked out at 51% in test [1] (10 mg-eq/kg oral, independent groups); 68% in test [1] (30 mg-eq/kg oral, independent groups); 48% in test [3] (7-day chronic oral, 10 mg-eq/kg); 62% in test [3] (7-day chronic oral, 30 mg-eq/kg). Moreover, the “inhibition of cocaine cue-induced reinstatement (lever presses)” value in test [2] (2.5 mg-eq/kg oral) came to 30%; in test [2] (5 mg-eq/kg oral), 59%; in test [2] (10 mg-eq/kg oral), 55%; in test [2] (30 mg-eq/kg oral), 50%. Also, the “effect on cocaine cue reinstatement, in words” value in test [2] (2.5 mg-eq/kg oral, lowest dose tested) is “not significantly different from vehicle”. The “development of tolerance to the therapeutic effect” value in test [3] (7-day chronic oral administration (data not shown)) is recorded as “no development of tolerance”.

Regarding `O=C(NCc1ccc(-c2cc[nH]c(=O)c2)cc1)c1c(Cl)cccc1Cl` [Compound 2, 2,6-dichloro-N-[4-(2-oxo-1,2-dihydro-pyridin-4-yl)-benzyl]-benzamide], the “effect on number of nicotine infusions, in words” value in test [1] (1 mg/kg oral) and in test [1] (5 mg/kg oral) was “without effect” each time.
